Experimental data published in patent publication US20170224819A1, “Therapeutic Combinations of a BTK Inhibitor, a PI3K Inhibitor, a JAK-2 Inhibitor, and/or a CDK 4/6 Inhibitor” (Acerta Pharma B.V., priority 2014, published 2017).

Legend:
[1] = tested on: GPVI platelet aggregation; assay: GPVI platelet aggregation studies; format: cell-based; conditions: read-out: IC50, GPVI platelet aggregation
KPC pancreatic cancer = KPC pancreatic cancer model; format: in vivo
BCR = assay: In vivo potency: expression of activation markers CD69 and CD86 after BCR stimulation with IgM; conditions: compared with ibrutinib; mice gavaged, sacrificed 3 h post-dose; flow cytometry; FIG. 137
Method: Mice were gavaged at increasing drug concentration and sacrificed at one time point (3 h post-dose). BCR is stimulated with IgM and the expression of activation markers CD69 and CD86 are monitored by flow cytometry to determine EC50's.

CLL = assay: Clinical study of Formula (XVIII) in CLL; format: in vivo
Description: J. Med. 2013, 369, 32-42.

KrasLA2 NSCLC = assay: KrasLA2 non-small cell lung cancer (NSCLC) model; format: in vivo
Description: FIG. 161 illustrates the dosing schema used with the KrasLA2 non-small cell lung cancer (NSCLC) model.
FIG. 162 illustrates tumor volume variation from baseline as assessed by microcomputerized tomography (microCT) in the KrasL2 NSCLC model.

canine B cell lymphoma = assay: Veterinary clinical trial in companion dogs with lymphoma; format: in vivo
Method: Enrollment has completed for Arm 1 and is ongoing for Arm 2.
Intra-subject dose escalation was allowed. Six of the 11 dogs that initiated at 2.5 or 5 mg/kg once daily were escalated and completed the study with dosages of 10 mg/kg twice daily. Among all the dose cohorts, 8 dogs had shrinkage of target lesions >20%; the best tumor responses were between 45-49% reduction in the sum of target lesions in two dogs.

NK cells = assay: NK cell degranulation (CD107a externalization, flow cytometry); format: cell-based, human; conditions: 1 μM, HER18 target cells
Method: Lytic granule release was determined as follows. NK cells from healthy donors were enriched and cultured in the presence of target cells, monoclonal antibodies and test articles as described above. After 4 hours, the cultures were harvested and cells were pelleted, washed, and then stained for flow cytometry evaluation. Degranulation was evaluated via by flow cytometery by externalization of CD107a, a protein normally present on the inner leaflet of lytic granules, and gating on NK cells (CD3-CD16^+ lymphocytes). The percentage of CD107a positive NK cells was quantified by comparison with a negative control (isotype control, unstained cells/FMO). Control cultures (NK cells cultured without target cells, or NK, target cell co-cultures in the absence of appropriate monoclonal antibody) were also evaluated; all experiments were performed in triplicate.

BTK [2] = biological target: T1, BTK (Mus musculus, UniProt P35991); assay: Molecular probe assay of irreversible BTK occupancy in MDSCs of tumor bearing PDA mice; format: in vivo; conditions: 15 mg/kg BID, Day 8, 4 hours post dose (N=5)
T1 construct: MDSCs were purified from tumor bearing PDA mice; endogenous in cells; host or cells: granulocytic and monocytic MDSCs from tumour-bearing PDA mice
T1 sequence (P35991 whole entry): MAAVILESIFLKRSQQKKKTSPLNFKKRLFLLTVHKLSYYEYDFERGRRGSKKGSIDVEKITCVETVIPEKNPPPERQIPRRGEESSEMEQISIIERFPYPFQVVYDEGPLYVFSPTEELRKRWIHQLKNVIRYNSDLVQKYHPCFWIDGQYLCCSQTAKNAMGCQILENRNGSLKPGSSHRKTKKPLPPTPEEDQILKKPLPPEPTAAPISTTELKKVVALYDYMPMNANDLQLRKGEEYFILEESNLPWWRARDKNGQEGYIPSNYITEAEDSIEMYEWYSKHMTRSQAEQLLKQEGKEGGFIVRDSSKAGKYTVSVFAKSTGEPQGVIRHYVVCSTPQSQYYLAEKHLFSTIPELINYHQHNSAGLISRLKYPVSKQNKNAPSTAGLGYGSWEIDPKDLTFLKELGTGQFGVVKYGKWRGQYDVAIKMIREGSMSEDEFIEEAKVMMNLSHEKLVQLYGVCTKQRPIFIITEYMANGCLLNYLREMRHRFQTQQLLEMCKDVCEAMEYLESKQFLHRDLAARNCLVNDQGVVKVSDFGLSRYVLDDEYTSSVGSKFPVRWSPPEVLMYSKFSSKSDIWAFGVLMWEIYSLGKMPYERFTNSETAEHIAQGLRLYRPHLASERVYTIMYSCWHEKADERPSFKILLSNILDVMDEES
Description: A molecular probe assay was used to calculate the percent irreversible occupancy of total BTK.

Txk = Txk (Homo sapiens, UniProt P42681); assay: biochemical
Sequence of Txk (P42681 whole entry): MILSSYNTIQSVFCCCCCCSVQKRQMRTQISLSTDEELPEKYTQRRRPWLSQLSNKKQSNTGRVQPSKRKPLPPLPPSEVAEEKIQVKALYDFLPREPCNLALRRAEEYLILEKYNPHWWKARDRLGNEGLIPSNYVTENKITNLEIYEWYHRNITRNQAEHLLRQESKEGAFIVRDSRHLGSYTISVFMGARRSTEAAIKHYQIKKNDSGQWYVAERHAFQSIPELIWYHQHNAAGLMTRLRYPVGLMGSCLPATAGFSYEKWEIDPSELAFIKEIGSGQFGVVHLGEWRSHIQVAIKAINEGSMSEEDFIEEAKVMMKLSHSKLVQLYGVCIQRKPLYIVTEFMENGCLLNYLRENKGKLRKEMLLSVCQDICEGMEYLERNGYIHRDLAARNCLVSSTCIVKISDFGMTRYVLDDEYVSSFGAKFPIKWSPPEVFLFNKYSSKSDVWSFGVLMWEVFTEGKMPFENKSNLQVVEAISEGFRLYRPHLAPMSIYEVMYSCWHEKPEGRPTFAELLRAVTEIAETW

BTK [3] = biological target: BTK (Homo sapiens, UniProt Q06187); assay: BTK target occupancy in relapsed/refractory CLL patients; conditions: at lower dosage versus ibrutinib, FIG. 144
Sequence of BTK (Homo sapiens, UniProt Q06187) (Q06187 whole entry): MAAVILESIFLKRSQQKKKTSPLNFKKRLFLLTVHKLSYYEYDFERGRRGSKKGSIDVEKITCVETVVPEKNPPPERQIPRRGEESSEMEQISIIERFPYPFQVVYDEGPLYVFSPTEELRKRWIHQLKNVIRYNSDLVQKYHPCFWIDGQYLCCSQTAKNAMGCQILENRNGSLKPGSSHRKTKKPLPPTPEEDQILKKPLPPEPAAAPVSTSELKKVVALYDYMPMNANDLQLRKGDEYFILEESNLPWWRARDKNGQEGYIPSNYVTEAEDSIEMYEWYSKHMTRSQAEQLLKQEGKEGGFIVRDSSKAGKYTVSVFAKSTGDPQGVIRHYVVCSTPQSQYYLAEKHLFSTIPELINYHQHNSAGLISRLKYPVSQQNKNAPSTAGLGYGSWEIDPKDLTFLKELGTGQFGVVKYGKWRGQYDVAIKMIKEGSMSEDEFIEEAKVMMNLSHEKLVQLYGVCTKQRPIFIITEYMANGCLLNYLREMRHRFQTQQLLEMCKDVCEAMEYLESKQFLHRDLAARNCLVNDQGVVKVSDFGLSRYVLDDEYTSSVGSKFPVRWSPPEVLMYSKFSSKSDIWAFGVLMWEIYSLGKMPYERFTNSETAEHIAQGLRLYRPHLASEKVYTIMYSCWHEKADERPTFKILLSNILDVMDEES

[4] = tested on: chronic lymphocytic leukemia (CLL); assay: Clinical study of Formula (XVIII) in relapsed/refractory CLL

CC#CC(=O)N1CCC[C@H]1c1nc(-c2ccc(C(=O)Nc3ccccn3)cc2)c2c(N)nccn12 [Formula (XVIII), (S)-4-(8-amino-3-(1-(but-2-ynoyl)pyrrolidin-2-yl)imidazo[1,5-a]pyrazin-1-yl)-N-(pyridin-2-yl)benzamide]
IC50 [1]: 1150 nM
immunosuppressive TAMs (CD11b+Ly6ClowF4/80+Csf1r+) in tumor tissues (KPC pancreatic cancer; FIG. 128): significantly reduced
immunosuppressive MDSCs (Gr1+Ly6CHi) in tumor tissues (KPC pancreatic cancer; FIG. 129): significantly reduced
immunosuppressive Tregs (CD4+CD25+FoxP3+) in tumor tissues (KPC pancreatic cancer; FIG. 130): significantly reduced
potency at inhibiting expression of activation markers CD69 and CD86 (BCR): more potent
apoptosis (CLL; CLL patients, FIG. 157): increased
sum of the product of greatest diameters (SPD) (CLL; CLL, compared with ibrutinib, FIG. 138): decreases more rapidly
absolute lymphocyte count (ALC) (CLL; CLL, relative to ibrutinib (Byrd et al. 2013), FIG. 138): much smaller relative increase and much faster decrease
CXCL12 levels (CLL; patients treated, FIG. 158): decrease
CCL2 levels (CLL; patients treated, FIG. 159): decrease
immunosuppressive tumor associated TAMs (KrasLA2 NSCLC; FIG. 163): significant reduction
immunosuppressive tumor associated MDSCs (KrasLA2 NSCLC; FIG. 164): significant reduction
immunosuppressive tumor associated Tregs (KrasLA2 NSCLC; FIG. 165): significant reduction
CR by investigator evaluation (canine B cell lymphoma): 0/21
Inhibition of trastuzumab-stimulated NK cell degranulation (NK cells): no inhibitory effect
Irreversible BTK occupancy in granulocytic and monocytic MDSCs (BTK [2]): Complete BTK occupancy
IC50 (Txk): 291 nM
BTK target occupancy (BTK [3]): improved
PD (progressive disease) ([4]; 100 mg QD (N = 8)): 0 (0) n (%)
PD (progressive disease) ([4]; 175 mg QD (N = 8)): 0 (0) n (%)
PD (progressive disease) ([4]; 250 mg QD (N = 7)): 0 (0) n (%)
PD (progressive disease) ([4]; All Cohorts (N = 31)): 0 (0) n (%)
PR (partial response) ([4]; All Cohorts (N = 31)): 22 (71) n (%)
PR + L (partial response with lymphocytosis) ([4]; All Cohorts (N = 31)): 7 (23) n (%)
Time of treatment at which the median % change in SPD achieved the same status ([4]; CLL patients, present study): 7 months
PFS (Kaplan-Meier) in comparison to ibrutinib ([4]; CLL patients, Log-Rank p-value 0.0206): An improvement in survival and a reduction in risk
Treatment-related adverse event: Headache ([4]; Grade 1/2, All (N = 44)): 7 (16) n (%)
Treatment-related adverse event: Diarrhea ([4]; Grade 1, All (N = 44)): 4 (9) n (%)
Dose-limiting toxicities (DLTs) ([4]; human, in vivo): No DLTs were observed
Grade of adverse events ([4]; human, in vivo): only grade 1 AEs were observed
Lymphocytosis ([4]; human, in vivo): A lack of lymphocytosis was observed
Treatment-related adverse event: Increased tendency to bruise ([4]; human, in vivo): 6 (14) n (%)
Treatment-related adverse event: Petechiae ([4]; human, in vivo): 3 (7) n (%)
Treatment-related serious adverse events (SAEs) ([4]; human, in vivo): No treatment-related serious adverse events (SAEs) were observed
Progression in patients with the 17p deletion ([4]; to date): no 17p patients have progressed
